The values that follow come from US20160097044A1, “Antimicrobial Enzyme Fusions Reduce Resistance and Kill Intracellular Staphylococcus aureus” (The United States of America, as Represented by the …, priority 2014, published 2016).

For series [1], the system named is intracellular S. aureus strain UAMS-1 in murine calvaria. Put plainly: Ex vivo neonatal mouse calvaria intracellular eradication. The class given is cell-based. Here is the method:
Neonatal mouse whole calvaria were treated for 4 hours with chimeric peptidoglycan hydrolases or buffer alone, 24 hours post inoculation with GFP-expressing S. aureus. Calvaria were embedded in freeze media, sectioned, and subjected to fluorescence imaging. The image shown is a representative figure for triplicate sections of three separate calvaria. FIG. 8b depicts fluorescence intensity from these sections measured in ImageJ and defined as arbitrary fluorescence standardized to the untreated control. Error bars represent SEM of four replicate experiments. FIG. 8c depicts ex-vivo intracellular S. aureus eradication. Infected calvaria were homogenized and CFU were counted post treatment. Error bars represent SEM. FIG. 8d depicts a murine model of staphylococcal osteomyelitis. C57BL/6J mice were anesthetized and their femurs were surgically exposed. A trough was drilled through the bone cortex and the damaged bone sites were inoculated with 1×10^3 CFU S. aureus in agarose beads. After 24 hours, mice were treated (i.m. to site of infection) twice in a 24 h period with PBS or 5 mg/kg of triple fusion K-L or K-L-PTD1. The femurs were removed, homogenized, and plated to quantify the bacterial load. Bars indicate the average CFU recovered (N=6). […] Asterisks represent statistical significance as determined by one-way ANOVA followed by Tukey's posthoc test.
To examine the intracellular uptake and eradication in murine osteoblast-containing tissue samples, both ex vivo calvaria (skull cap), and in vivo femur injury models were tested. Calvaria were isolated from neonatal mice and infected with UAMS-1 strain of S. aureus (1×10^6 bacteria/calvaria) for 2 h at 37° C. in osteoblast growth medium in the absence of antibiotics. Following 3× washes with PBS, calvaria were exposed to 50 μg/ml of gentamicin for 15 min to kill extracellular bacteria and further cultured in gentamicin containing osteoblast growth media. After 24 h later, calvaria were treated with peptidoglycan hydrolases (5 μg/ml) or gentamicin only control for 2 h. Lysis buffer containing 0.05% trypsin and 0.25% Triton X-100 was used to homogenize the calvaria, the homogenates were quantitatively plated on LB agar plates, and the CFU were enumerated after 24 h. The data represents triplicate determinants of two separate experiments.
Calvaria were isolated, and infected as described above using GFP-tagged UAMS-1 strain of S. aureus. Two hours post-infection, calvaria were washed with PBS followed by a 15 minutes treatment with 50 μg/ml gentamicin to kill extracellular bacteria. 24 hours post-infection, calvaria were treated with 5 μg/ml peptidoglycan hydrolases or gentamicin only control for two hours and embedded in Tissue-Tek O.C.T compound (Sakura, Torrance, Calif.). […]

For series [2] the following is noted: bovine, in vivo; cited from earlier work.
Another series has as its system TNFα. Put plainly: Murine model of mastitis, TNFα response. It is filed as in vivo, C57BL6/SJL mice. Conditions: single 1.25 nmoles intramammary infusion, after challenge. On the procedure: FIG. 6a depicts the specific activity of peptidoglycan hydrolase fusion constructs in vitro in a turbidity reduction assay with S. aureus Newbould 305 resuspended in lysis buffer to an OD600nm of 1.0 and treated with 1 μM final concentrations of each peptidoglycan hydrolase. The maximum specific activity for three experiments are represented as an average with SEM error bars. FIG. 6b depicts the bacterial burden in mice with mastitis treated with recombinant peptidoglycan hydrolases. Colony Forming Units (CFUs) from infected murine mammary glands following a single treatment with 50 μl of 25 μM peptidoglycan hydrolase (1.25 nmol). Each data point represents the average of duplicate bacterial platings. The horizontal bars represent the average CFU/mg for each group. FIG. 6c illustrates the TNFα response in mice with mastitis that were treated with peptidoglycan hydrolases. Data represents a minimum of 7 measurements in duplicate. Log TNFα was used for statistical analysis. Single asterisks indicate a significant difference from buffer control (p<0.05); double asterisks indicate a significant difference from the parental enzyme (p<0.05). […]
Statistical analysis: The variables were analyzed as two-factor mixed models with Treatment as the factor and Mouse as random Blocks. […]

Series [3] has as its system post-treatment isolates of S. aureus ALR. Put plainly: Resistance of isolates recovered from nares of treated rats (plate lysis, MIC). The class given is cell-based. Here is the method:
The Minimum Inhibitory Concentrations (MIC) of each protein for multiple S. aureus strains was determined as previously described (Jones et al. 1985. In: Manual of Clinical Microbiology, Eds. Balows et al. American Society of Microbiology, Washington D.C., pp. 972-977) with the following modifications. Enzymes were serially diluted two fold across a 96 well plate, such that after dilution, 50 μl of the enzyme solution in 300 mM NaCl, 50 mM NaH2PO4, 30% glycerol pH 7.5, remained in each well. To each well was added 50 μl of TSB and 100 μl of S. aureus Newman in TSB (diluted to 5×10^6 cells/ml). The plates were incubated 20 h at 37° C. and read with a 96 well plate reader. MIC determination values were reported as the median of ≧4 replicates (Table 1).

Entries after “also recorded” stand apart in the source; their conditions may differ.

For “K-L: both LysK lytic domains fused to the N-terminus of lysostaphin; SEQ ID NO:5, protein SEQ ID NO:6”, the “live bacteria (CFU) recovered from calvaria” value in series [1] (5 μg/ml for 2 h, homogenized calvaria) is recorded as “able to reduce the number of live bacteria recovered from sectioned calvaria”. For the same molecule, the “elimination of GFP-labeled intracellular S. aureus (fluorescence)” value in series [1] (5 μg/ml, 24 hours post-infection, sectioned calvaria) is recorded as “able to eliminate GFP-labeled intracellular S. aureus strain UAMS-1 from murine calvaria”.
As for “L: 247 amino acid mature (secreted) lysostaphin, staphylolytic bacteriocin, C-terminal His6 tag; SEQ ID NO:1 [reference compound]”, the “treatments after which specific antibodies were detectable” value in series [2] is recorded as 18-21 treatments. For the same molecule, the “reduction of TNFα concentration in the mammary tissue” value in the series with TNFα is reported as greater than 6 fold.

B1: L-K: LysK lytic domains inserted between lysostaphin's M23 endopeptidase domain and SH3b cell wall binding domain; SEQ ID NO:7, protein SEQ ID NO:8 (protein)
chain: MAATHEHSAQWLNNYKKGYGYGPYPLGINGGMHYGVDFFMNIGTPVKAISSGKIVEAGWSNYGGGNQIGLIENDGVHRQWYMHLSKYNVKVGDYVKAGQIIGWSGSTGYSTAPHLHFQRMVNSFSNSTAQDPMPFLKSAGYGKAGGTVTPTPNTGLDAKTQAEINKRLDAYAKGTVDSPYRVKKATSYDPSFGVMEAGAIDADGYYHAQCQDLITDYVLWLTDNKVRTWGNAKDQIKQSYGTGFKIHENKPSTVPKKGWIAVFTSGSYEQWGHIGIVYDGGNTSTFTILEQNWNGYANKKPTKRVDNYYGLTHFIEIPVKAGTTVKKETAKKSASKTPAPKKKATLKVSKNHINYTMDKRGKKPEGMVIHNDAGRSSGQQYENSLANAGYARYANGIAHYYGSEGYVWEAIDAKNQIAWHTGDGTGANSGNFRFAGIEVCQSMSASDAQFLKNEQAVFQFTAEKFKEWGLTPNRKTVRLHMEFVPTACPHRSMVLHTGFNPVTQGRPSQAIMNKLKDYFIKQIKNYMDKGTSSSTVVKDGKTSSASLDTVTPTPNTGWKTNKYGTLYKSESASFTPNTDIITRTTGPFRSMPQSGVLKAGQTIHYDEVMKQDGHVWVGYTGNSGQRIYLPVRTWNKSTNTLGVLWGTIKLEHHHHHH
modifications: Staphylococcus simulans & Phage K
Take B1: the “MIC of 8 post-treatment isolates” value in series [3] (isolates from rats treated with triple fusion L-K, N=32) amounted to 7.0 ± 2.4 µg/mL. Further, the “resistance of colonies recovered from nares of treated rats” value in series [3] (plate lysis analysis, N=22 colonies) is reported as “not more resistant than the parental strain; also recorded: no in vivo resistance development detected”.
